# Columns and labels:
# Assay type in all cases: cell-based, human
# RPMI-8226 = assay: NCI-60 five-dose assay; conditions: RPMI-8226, Leukemia
# K-562 = assay: NCI-60 five-dose assay; conditions: K-562, Leukemia
# NCI-H322M = assay: NCI-60 five-dose assay; conditions: NCI-H322M, Non-Small Cell Lung Cancer
# HCC-2998 = assay: NCI-60 five-dose assay; conditions: HCC-2998, Colon Cancer
# HCT-116 = assay: NCI-60 five-dose assay; conditions: HCT-116, Colon Cancer
# SF-268 = assay: NCI-60 five-dose assay; conditions: SF-268, CNS Cancer
# SNB-19 = assay: NCI-60 five-dose assay; conditions: SNB-19, CNS Cancer
# SNB-75 = assay: NCI-60 five-dose assay; conditions: SNB-75, CNS Cancer
# LOX IMVI = assay: NCI-60 five-dose assay; conditions: LOX IMVI, Melanoma
# SK-MEL-28 = assay: NCI-60 five-dose assay; conditions: SK-MEL-28, Melanoma
# SK-MEL-5 = assay: NCI-60 five-dose assay; conditions: SK-MEL-5, Melanoma
# UACC-62 = assay: NCI-60 five-dose assay; conditions: UACC-62, Melanoma
# IGROV1 = assay: NCI-60 five-dose assay; conditions: IGROV1, Ovarian Cancer
# OVCAR-8 = assay: NCI-60 five-dose assay; conditions: OVCAR-8, Ovarian Cancer
# NCI/ADR-RES = assay: NCI-60 five-dose assay; conditions: NCI/ADR-RES, Ovarian Cancer
# 786-0 = assay: NCI-60 five-dose assay; conditions: 786-0, Renal Cancer
# A498 = assay: NCI-60 five-dose assay; conditions: A498, Renal Cancer
# RXF 393 = assay: NCI-60 five-dose assay; conditions: RXF 393, Renal Cancer
# TK-10 = assay: NCI-60 five-dose assay; conditions: TK-10, Renal Cancer
# PC-3 = assay: NCI-60 five-dose assay; conditions: PC-3, Prostate Cancer
# MCF7 = assay: NCI-60 five-dose assay; conditions: MCF7, Breast Cancer
# HS 578T = assay: NCI-60 five-dose assay; conditions: HS 578T, Breast Cancer
# T-47D = assay: NCI-60 five-dose assay; conditions: T-47D, Breast Cancer
# Prostate Cancer subpanel = assay: NCI-60 five-dose assay, subpanel; conditions: Prostate Cancer
# Breast Cancer subpanel = assay: NCI-60 five-dose assay, subpanel; conditions: Breast Cancer
# [1] = Homo sapiens, read-out: GI50 Conc. per Cell Line
# [2] = Homo sapiens, read-out: LC50 (the source's name)
# [3] = Homo sapiens, average sensitivity of all subpanel cell lines, read-out: GI50 Subpanel MID b
compound,measurement,setting,value
"COc1ccc(C=NNC(=O)c2ccc3[nH]c(-c4ccc(Cl)cc4)nc3c2)cc1 [Compound 4g, N′-(4-Methoxybenzylidene)-2-(4-chlorophenyl)-1H-benzimidazole-5-carbohydrazide]",GI50,RPMI-8226; [1],0.997 µM
same,CC50,RPMI-8226; [2],> 100 µM
same,TGI,RPMI-8226,4.77 µM
same,GI50,"K-562; Homo sapiens, K562, read-out: GI50 Conc. per Cell Line",2.69 µM
same,CC50,"K-562; Homo sapiens, K562, read-out: LC50 (the source's name)",> 100 µM
same,TGI,K-562,11.20 µM
same,GI50,NCI-H322M; [1],2.49 µM
same,CC50,NCI-H322M; [2],55.4 µM
same,TGI,NCI-H322M,7.20 µM
same,TGI,HCC-2998,6.44 µM
same,GI50,HCC-2998; [1],2.57 µM
same,CC50,HCC-2998; [2],37.8 µM
same,TGI,HCT-116,5.12 µM
same,GI50,HCT-116; [1],2.14 µM
same,CC50,HCT-116; [2],18.9 µM
same,GI50,SF-268; [1],2.09 µM
same,CC50,SF-268; [2],20.8 µM
same,TGI,SF-268,5.10 µM
same,GI50,SNB-19; [1],3.13 µM
same,CC50,SNB-19; [2],49.6 µM
same,TGI,SNB-19,7.95 µM
same,GI50,SNB-75; [1],1.53 µM
same,CC50,SNB-75; [2],25.7 µM
same,TGI,SNB-75,4.57 µM
same,GI50,LOX IMVI; [1],2.19 µM
same,CC50,LOX IMVI; [2],7.34 µM
same,TGI,LOX IMVI,4.01 µM
same,GI50,SK-MEL-28; [1],1.79 µM
same,CC50,SK-MEL-28; [2],6.35 µM
same,TGI,SK-MEL-28,3.37 µM
same,GI50,SK-MEL-5; [1],1.89 µM
same,CC50,SK-MEL-5; [2],7.95 µM
same,TGI,SK-MEL-5,3.88 µM
same,GI50,UACC-62; [1],1.94 µM
same,CC50,UACC-62; [2],10.9 µM
same,TGI,UACC-62,4.47 µM
same,GI50,"IGROV1; Homo sapiens, IGROV-1, read-out: GI50 Conc. per Cell Line",1.65 µM
same,CC50,"IGROV1; Homo sapiens, IGROV-1, read-out: LC50 (the source's name)",9.57 µM
same,TGI,IGROV1,3.97 µM
same,GI50,OVCAR-8; [1],3.19 µM
same,CC50,OVCAR-8; [2],> 100 µM
same,TGI,OVCAR-8,11.50 µM
same,GI50,NCI/ADR-RES; [1],7.81 µM
same,CC50,NCI/ADR-RES; [2],> 100 µM
same,TGI,NCI/ADR-RES,>100 µM
same,TGI,786-0,3.67 µM
same,GI50,786-0; [1],1.93 µM
same,CC50,786-0; [2],6.98 µM
same,TGI,A498,9.87 µM
same,GI50,A498; [1],2.45 µM
same,CC50,A498; [2],54.6 µM
same,GI50,RXF 393; [1],1.86 µM
same,CC50,RXF 393; [2],7.76 µM
same,TGI,RXF 393,3.80 µM
same,GI50,TK-10; [1],2.95 µM
same,CC50,TK-10; [2],56.7 µM
same,TGI,TK-10,6.59 µM
same,LC50,PC-3; Homo sapiens,8.55 µM
same,GI50,PC-3; [1],1.65 µM
same,TGI,PC-3,3.76 µM
same,GI50,MCF7; [1],1.47 µM
same,CC50,MCF7; [2],10 µM
same,TGI,MCF7,3.84 µM
same,TGI,HS 578T,5.64 µM
same,GI50,HS 578T; [1],2.3 µM
same,CC50,HS 578T; [2],> 100 µM
same,GI50,"T-47D; Homo sapiens, T47D, read-out: GI50 Conc. per Cell Line",1.94 µM
same,CC50,"T-47D; Homo sapiens, T47D, read-out: LC50 (the source's name)",30 µM
same,TGI,T-47D,4.83 µM
same,GI50,Prostate Cancer subpanel; [3],1.81 µM
same,GI50 Selectivity Ratio (MID a/MID b),Prostate Cancer subpanel,1.39
same,GI50 Selectivity Ratio (MID a/MID b),Breast Cancer subpanel,1.12
same,GI50,Breast Cancer subpanel; [3],2.24 µM

# Source: PMC10819888, “Benzimidazole-Based Derivatives as Apoptotic Antiproliferative Agents: Design, Synthesis, Docking, and Mechanistic Studies” (Molecules, 2024)
